Measurements: publication PMC10786919, “Design-rules for stapled peptides with in vivo activity and their application to Mdm2/X antagonists” (Nature Communications, 2024)
Like-named read-outs stand apart in the source and are kept apart here. Starred links: 1 amine or outer side, 2 acyl side, 3 side chain; linkers in the order of their positions; H or OH if unused. Positions of bridges follow the written chain, without caps; N, C: chain ends. Non-standard residues stand in square brackets, D forms with d. Residues, ends and D or L forms follow the SMILES beside them. dR8(desαMe) = O=C([C@@H](CCCCCCC=[*:3])N[*:1])[*:2]; Nle(6-ylidene) = O=C([C@H](CCCC=[*:3])N[*:1])[*:2]; 2Nal = N[C@@H](Cc1ccc2ccccc2c1)C(=O)O; tBuAla = CC(C)(C)C[C@H](N)C(=O)O; R8 = C=CCCCCCC[C@@](C)(N)C(=O)O; S5 = C=CCCC[C@](C)(N)C(=O)O; Aib = CC(C)(N)C(=O)O; Ahx = NCCCCCC(=O)O

Legend:
Type in all cases: cell-based
[1] = system: p53 responsive β-lactamase reporter in HCT116 cells; test: cells; conditions: read-out: p53 reporter assay EC50
Experimental: HCT116 cells were stably transfected with a p53 responsive β-lactamase reporter and expanded in McCoy’s 5 A Medium with 10% fetal bovine serum (FBS), Blasticidin, and Penicillin/Streptomycin and then transferred to 1.5 ml freezing vials and stored under liquid nitrogen in growth media containing 5% DMSO. […] The cells were then seeded into a 384-well plate at a density of 8000 cells per well. […] The final working concentration of DMSO was 0.5%. β-lactamase activity was detected using the ToxBLAzer Dual Screen (Invitrogen), as per the manufacturer’s instructions. Measurements were made using the Envision multiplate reader (Perkin–Elmer). […] Measurements were taken a minimum of three times (biological replicates) and values are reported as geometric means of the replicates.

[2] = Lactate dehydrogenase (LDH) release assay; conditions: LDH: Cytotoxicity assay EC50
Summary of the method: (§1)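 HCT116 cells stably carrying a p53-responsive β-lactamase reporter were seeded at 8000 cells per well with a final DMSO level of 0.5%. Membrane integrity was assessed by lactate dehydrogenase release using a homogeneous fluorometric kit. Values are geometric means of at least three biological replicates.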

HCT116 cells = test: Lactate dehydrogenase (LDH) release assay
Summary of the method: as §1

[3] = system: Jump-In T-REx CHO-K1 BLA cells; test: cells; conditions: for EC50: read-out: TETCHO: Counterscreen EC50
Experimental: This assay was based on Jump-In™ T-REx™ CHO-K1 BLA cells containing a stably integrated β-lactamase under the control of an inducible cytomegalovirus (CMV) promoter. Cells were maintained in Dulbecco’s […] Eagle Medium (DMEM) with 10% fetal bovine serum (FBS), Blasticidin, and Penicillin/Streptomycin and then transferred to 1.5 ml freezing vials and stored under liquid nitrogen in growth media containing 5% DMSO. […] Cells were seeded into a 384-well plate at a density of 4000 cells per well. Peptides were then dispensed to each well using a liquid handler, ECHO 555 and incubated for 16 h. The final working concentration of DMSO was 0.5%. β-lactamase activity was detected using the ToxBLAzer Dual Screen (Invitrogen), as per the manufacturer’s instructions. Measurements were carried out using the Envision multiplate reader (Perkin–Elmer). Counterscreen activity was defined as the amount of β-lactamase activity induced by tetracycline. Measurements were taken a minimum of three times (biological replicates) and values are reported as geometric means of the replicates.

SMILES	EC50 ([1]; 0% FBS 4Hr) [µM]	EC50 [2] [µM]	LDH: Cytotoxicity assay % Effect (HCT116 cells) [%]	TETCHO: Counterscreen % Effect ([3]; 0% FBS 4Hr) [%]	EC50 ([3]; 0% FBS 4Hr) [µM]	EC50 ([1]; 0% FBS 16Hr) [µM]	TETCHO: Counterscreen % Effect ([3]; 0% FBS 16Hr) [%]
CC(=O)N[C@@H](Cc1c[nH]cn1)C(=O)N[C@@H](Cc1c[nH]cn1)C(=O)N[C@@H](Cc1c[nH]cn1)C(=O)NCCCCCC(=O)N[C@H](C(=O)N[C@@H](CO)C(=O)N[C@@H](Cc1ccccc1)C(=O)N[C@]1(C)CCCCCCC=CCCC[C@@](C)(C(N)=O)NC(=O)[C@H](CC(C)C)NC(=O)[C@H](CC(C)C)NC(=O)[C@H](C)NC(=O)[C@H](Cc2c[nH]c3ccccc23)NC(=O)[C@H](Cc2ccc(O)cc2)NC(=O)[C@H](CCC(=O)O)NC1=O)[C@@H](C)O [MP-008]	17.9	28.5	42.18	75.71	> 50	–	–
CC(=O)N[C@@H](CCCNC(=N)N)C(=O)N[C@@H](CCCNC(=N)N)C(=O)N[C@@H](CCCNC(=N)N)C(=O)NCCCCCC(=O)N[C@H](C(=O)N[C@@H](CO)C(=O)N[C@@H](Cc1ccccc1)C(=O)N[C@]1(C)CCCCCCC=CCCC[C@@](C)(C(=O)N[C@@H](CCC(=O)O)C(=O)N[C@@H](CC(N)=O)C(=O)N[C@@H](Cc2ccc(O)cc2)C(N)=O)NC(=O)[C@H](CC(C)C)NC(=O)[C@H](CC(C)C)NC(=O)[C@H](C)NC(=O)[C@H](Cc2c[nH]c3ccccc23)NC(=O)[C@H](Cc2ccc(O)cc2)NC(=O)[C@H](CCC(=O)O)NC1=O)[C@@H](C)O [MP-012] (Ac-RRR[Ahx]TSF[R8]EYWALL[S5]ENY-NH2; staple 8-15)	34.2	> 50	36.73	23.79	> 50	–	–
CC(=O)N[C@@H](CCCCN)C(=O)N[C@@H](CCCCN)C(=O)NCCCCCC(=O)N[C@H](C(=O)N[C@@H](CO)C(=O)N[C@@H](Cc1ccccc1)C(=O)N[C@]1(C)CCCCCCC=CCCC[C@@](C)(C(=O)N[C@@H](CCC(=O)O)C(=O)N[C@@H](CC(N)=O)C(=O)N[C@@H](Cc2ccc(O)cc2)C(N)=O)NC(=O)[C@H](CC(C)C)NC(=O)[C@H](CC(C)C)NC(=O)[C@H](C)NC(=O)[C@H](Cc2c[nH]c3ccccc23)NC(=O)[C@H](Cc2ccc(O)cc2)NC(=O)[C@H](CCC(=O)O)NC1=O)[C@@H](C)O [MP-013] (Ac-KK[Ahx]TSF[R8]EYWALL[S5]ENY-NH2; staple 7-14)	8.65	> 50	-1.001	11.6	> 50	–	–
CC(=O)N[C@H](C(=O)N[C@@H](CO)C(=O)N[C@@H](Cc1ccccc1)C(=O)N[C@]1(C)CCCCCCC=CCCC[C@@](C)(C(=O)N[C@@H](CO)C(=O)N[C@@H](C)C(=O)N[C@@H](C)C(=O)N[C@@H](CCC(=O)O)C(N)=O)NC(=O)[C@H](CC(C)(C)C)NC(=O)[C@H](CC(C)C)NC(=O)[C@H](C)NC(=O)[C@H](Cc2c[nH]c3ccccc23)NC(=O)[C@H](Cc2ccc(O)cc2)NC(=O)[C@H](CCC(=O)O)NC1=O)[C@@H](C)O [MP-143] (Ac-TSF[R8]EYWAL[tBuAla][S5]SAAE-NH2; staple 4-11)	8.92	> 50	5.215	0.6237	> 50	–	–
CC(=O)N[C@H](C(=O)N[C@@H](CO)C(=O)N[C@@H](Cc1ccccc1)C(=O)N[C@]1(C)CCCCCCC=CCCC[C@@](C)(C(N)=O)NC(=O)[C@H](CC(C)(C)C)NC(=O)[C@H](CC(C)C)NC(=O)[C@H](C)NC(=O)[C@H](Cc2c[nH]c3ccccc23)NC(=O)[C@H](Cc2ccc(O)cc2)NC(=O)[C@H](CCC(=O)O)NC1=O)[C@@H](C)O [MP-149] (Ac-TSF[R8]EYWAL[tBuAla][S5]-NH2; staple 4-11)	12.6	28.3	42.59	20.68	> 50	–	–
CC(=O)N[C@H](C(=O)N[C@@H](CO)C(=O)N[C@@H](Cc1ccccc1)C(=O)N[C@@H]1CCCCCCC=CCCC[C@@H](C(N)=O)NC(=O)[C@H](CC(C)(C)C)NC(=O)[C@H](CC(C)C)NC(=O)[C@H](C)NC(=O)[C@H](Cc2c[nH]c3ccccc23)NC(=O)[C@H](Cc2ccc(O)cc2)NC(=O)[C@H](CCC(=O)O)NC1=O)[C@@H](C)O [MP-150] (Ac-TSF[dR8(desαMe)]EYWAL[tBuAla][Nle(6-ylidene)]-NH2; staple 4-11)	22.3	> 50	-0.7157	-3.542	> 50	–	–
CC(=O)N[C@@H](CCCCN)C(=O)N[C@@H](CCCCN)C(=O)N[C@H](C(=O)N[C@@H](CO)C(=O)N[C@@H](Cc1ccccc1)C(=O)N[C@]1(C)CCCCCCC=CCCC[C@@](C)(C(N)=O)NC(=O)[C@H](CC(C)(C)C)NC(=O)[C@H](CC(C)C)NC(=O)[C@H](C)NC(=O)[C@H](Cc2c[nH]c3ccccc23)NC(=O)[C@H](Cc2ccc(O)cc2)NC(=O)[C@H](CCC(=O)O)NC1=O)[C@@H](C)O [MP-152] (Ac-KKTSF[R8]EYWAL[tBuAla][S5]-NH2; staple 6-13)	19.3	17.2	49.97	34.57	36.5	–	–
CC(=O)N[C@H](C(=O)N[C@@H](CO)C(=O)N[C@@H](Cc1ccccc1)C(=O)NC(C)(C)C(=O)N[C@@H](CCC(=O)O)C(=O)N[C@@H](Cc1ccc(O)cc1)C(=O)N[C@@H](Cc1c[nH]c2ccccc12)C(=O)N[C@@H](C)C(=O)N[C@@H](CC(C)C)C(=O)N[C@@H](CC(C)(C)C)C(=O)NC(C)(C)C(N)=O)[C@@H](C)O [MP-155] (Ac-TSF[Aib]EYWAL[tBuAla][Aib]-NH2)	12.4	> 50	-0.2131	-0.6205	> 50	–	–
CC(=O)N[C@H](C(=O)N[C@@H](CO)C(=O)N[C@@H](Cc1ccc2ccccc2c1)C(=O)NC(C)(C)C(=O)N[C@@H](CCC(=O)O)C(=O)N[C@@H](Cc1ccc(O)cc1)C(=O)N[C@@H](Cc1c[nH]c2ccccc12)C(=O)N[C@@H](C)C(=O)N[C@@H](CC(C)C)C(=O)N[C@@H](CC(C)C)C(=O)NC(C)(C)C(N)=O)[C@@H](C)O [MP-161] (Ac-TS[2Nal][Aib]EYWALL[Aib]-NH2)	6.65	> 50	-0.5798	26.11	19.4	–	–
CC(=O)N[C@H](C(=O)N[C@@H](CO)C(=O)N[C@@H](Cc1ccccc1)C(=O)N[C@]1(C)CCCCCCC=CCCC[C@@](C)(C(=O)O)NC(=O)[C@H](CC(C)C)NC(=O)[C@H](CC(C)C)NC(=O)[C@H](C)NC(=O)[C@H](Cc2c[nH]c3ccccc23)NC(=O)[C@H](Cc2ccc(O)cc2)NC(=O)[C@H](CCC(=O)O)NC1=O)[C@@H](C)O [MP-162]	36.2	> 50.7	20.08	18.54	46.9	–	–
CC(=O)N[C@H](C(=O)N[C@@H](CO)C(=O)N[C@@H](Cc1ccccc1)C(=O)N[C@]1(C)CCCCCCC=CCCC[C@@](C)(C(N)=O)NC(=O)[C@H](CC(C)C)NC(=O)[C@H](CC(C)C)NC(=O)[C@H](C)NC(=O)[C@H](Cc2c[nH]c3ccccc23)NC(=O)[C@H](Cc2ccc(O)cc2)NC(=O)[C@H](CCC(N)=O)NC1=O)[C@@H](C)O [MP-163] (Ac-TSF[R8]QYWALL[S5]-NH2; staple 4-11)	11.5	> 50	6.049	21.33	> 50	–	–
CC(=O)N[C@H](C(=O)N[C@@H](CO)C(=O)N[C@@H](Cc1ccccc1)C(=O)N[C@]1(C)CCCCCCC=CCCC[C@@](C)(C(=O)NCCCCCC(=O)N[C@@H](CCCCN)C(N)=O)NC(=O)[C@H](CC(C)C)NC(=O)[C@H](CC(C)C)NC(=O)[C@H](C)NC(=O)[C@H](Cc2c[nH]c3ccccc23)NC(=O)[C@H](Cc2ccc(O)cc2)NC(=O)[C@H](CCC(=O)O)NC1=O)[C@@H](C)O [MP-164]	7.83	> 50	4.255	0.7814	> 50	–	–
CC(=O)N[C@@H](CCCCN)C(=O)NCCCCCC(=O)N[C@H](C(=O)N[C@@H](CO)C(=O)N[C@@H](Cc1ccccc1)C(=O)N[C@]1(C)CCCCCCC=CCCC[C@@](C)(C(=O)N[C@@H](CCC(=O)O)C(=O)N[C@@H](CC(N)=O)C(=O)N[C@@H](Cc2ccccc2)C(N)=O)NC(=O)[C@H](CC(C)C)NC(=O)[C@H](CC(C)C)NC(=O)[C@H](C)NC(=O)[C@H](Cc2c[nH]c3ccccc23)NC(=O)[C@H](Cc2ccc(O)cc2)NC(=O)[C@H](CCC(=O)O)NC1=O)[C@@H](C)O [MP-5365]	3.58	–	–	4.41	> 50	2.2	1.46
